According to PubChem BioAssay (NCI):
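Results reflect a 48-hour exposure of cells in 96-well plates to compound at five concentrations. The concentration for 50% growth inhibition is given as GI50. Definition used: TGI = concentration required for complete inhibition of growth.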

How the values were obtained:
Test in all cases: NCI anticancer screen, dose series, 48 h; in the data active means GI50 below about 0.43 µM; inactive means the rest
786-0 renal = tested on: 786-0 renal
A549 NSCLC = tested on: A549 NSCLC
ACHN renal = tested on: ACHN renal
BT-549 breast = tested on: BT-549 breast
CAKI-1 renal = tested on: CAKI-1 renal
CCRF-CEM leukemia = tested on: CCRF-CEM leukemia
COLO 205 colon = tested on: COLO 205 colon
DU-145 prostate = tested on: DU-145 prostate
EKVX NSCLC = tested on: EKVX NSCLC
HCC-2998 colon = tested on: HCC-2998 colon
HCT-116 colon = tested on: HCT-116 colon
HCT-15 colon = tested on: HCT-15 colon
HOP-62 NSCLC = tested on: HOP-62 NSCLC
HS 578T breast = tested on: HS 578T breast
HT29 colon = tested on: HT29 colon
IGROV1 ovarian = tested on: IGROV1 ovarian
K-562 leukemia = tested on: K-562 leukemia
KM12 colon = tested on: KM12 colon
LOX IMVI melanoma = tested on: LOX IMVI melanoma
M14 melanoma = tested on: M14 melanoma
MALME-3M melanoma = tested on: MALME-3M melanoma
MCF7 breast = tested on: MCF7 breast
MDA-MB-231 breast = tested on: MDA-MB-231 breast
MDA-MB-435 = tested on: MDA-MB-435
NCI-H226 lung = tested on: NCI-H226 lung
NCI-H23 lung = tested on: NCI-H23 lung
NCI-H460 lung = tested on: NCI-H460 lung
NCI-H522 lung = tested on: NCI-H522 lung
NCI/ADR-RES ovarian = tested on: NCI/ADR-RES ovarian
OVCAR-3 ovarian = tested on: OVCAR-3 ovarian
OVCAR-4 ovarian = tested on: OVCAR-4 ovarian
OVCAR-5 ovarian = tested on: OVCAR-5 ovarian
OVCAR-8 ovarian = tested on: OVCAR-8 ovarian
PC-3 prostate = tested on: PC-3 prostate
RPMI-8226 leukemia = tested on: RPMI-8226 leukemia
RXF 393 renal = tested on: RXF 393 renal
SF-268 CNS = tested on: SF-268 CNS
SF-295 CNS = tested on: SF-295 CNS
SF-539 CNS = tested on: SF-539 CNS
SK-MEL-2 melanoma = tested on: SK-MEL-2 melanoma
SK-MEL-28 melanoma = tested on: SK-MEL-28 melanoma
SK-MEL-5 melanoma = tested on: SK-MEL-5 melanoma
SK-OV-3 ovarian = tested on: SK-OV-3 ovarian
SN12C renal = tested on: SN12C renal
SNB-19 CNS = tested on: SNB-19 CNS
SNB-75 CNS = tested on: SNB-75 CNS
SW-620 colon = tested on: SW-620 colon
T-47D breast = tested on: T-47D breast
TK-10 renal = tested on: TK-10 renal
U251 CNS = tested on: U251 CNS
UACC-257 melanoma = tested on: UACC-257 melanoma
UACC-62 melanoma = tested on: UACC-62 melanoma
UO-31 renal = tested on: UO-31 renal

Cc1ccc(C2=C(c3ccc(C)cc3)C3(c4ccc(C)cc4)[C@@H](C#N)[C@H](C#N)C2(c2ccc(C)cc2)S3=O)cc1 (stereo partly specified)
> 100 µM: TGI (786-0 renal) | TGI (A549 NSCLC) | TGI (ACHN renal) | TGI (BT-549 breast) | TGI (CAKI-1 renal) | TGI (CCRF-CEM leukemia) | TGI (COLO 205 colon) | TGI (DU-145 prostate) | TGI (EKVX NSCLC) | TGI (HCC-2998 colon) | TGI (HCT-116 colon) | TGI (HCT-15 colon) | TGI (HOP-62 NSCLC) | TGI (HS 578T breast) | TGI (HT29 colon) | TGI (IGROV1 ovarian) | TGI (K-562 leukemia) | TGI (KM12 colon) | TGI (LOX IMVI melanoma) | TGI (M14 melanoma) | TGI (MALME-3M melanoma) | TGI (MCF7 breast) | TGI (MDA-MB-231 breast) | TGI (MDA-MB-435) | TGI (NCI-H226 lung) | TGI (NCI-H23 lung) | TGI (NCI-H460 lung) | TGI (NCI-H522 lung) | TGI (NCI/ADR-RES ovarian) | TGI (OVCAR-3 ovarian) | TGI (OVCAR-4 ovarian) | TGI (OVCAR-5 ovarian) | TGI (OVCAR-8 ovarian) | TGI (PC-3 prostate) | TGI (RPMI-8226 leukemia) | TGI (RXF 393 renal) | TGI (SF-268 CNS) | TGI (SF-295 CNS) | TGI (SF-539 CNS) | TGI (SK-MEL-2 melanoma) | TGI (SK-MEL-28 melanoma) | TGI (SK-MEL-5 melanoma) | TGI (SK-OV-3 ovarian) | TGI (SN12C renal) | TGI (SNB-19 CNS) | TGI (SNB-75 CNS) | TGI (SW-620 colon) | TGI (T-47D breast) | TGI (TK-10 renal) | TGI (U251 CNS) | TGI (UACC-257 melanoma) | TGI (UACC-62 melanoma) | TGI (UO-31 renal)
inactive: GI50 (786-0 renal) > 100 µM | GI50 (A549 NSCLC) > 100 µM | GI50 (ACHN renal) > 100 µM | GI50 (BT-549 breast) > 100 µM | GI50 (CAKI-1 renal) > 100 µM | GI50 (CCRF-CEM leukemia) > 100 µM | GI50 (COLO 205 colon) > 100 µM | GI50 (DU-145 prostate) > 100 µM | GI50 (EKVX NSCLC) > 100 µM | GI50 (HCC-2998 colon) > 100 µM | GI50 (HCT-116 colon) 48.5 µM | GI50 (HCT-15 colon) > 100 µM | GI50 (HOP-62 NSCLC) > 100 µM | GI50 (HS 578T breast) > 100 µM | GI50 (HT29 colon) > 100 µM | GI50 (IGROV1 ovarian) > 100 µM | GI50 (K-562 leukemia) 2.02 µM | GI50 (KM12 colon) > 100 µM | GI50 (LOX IMVI melanoma) > 100 µM | GI50 (M14 melanoma) 30.1 µM | GI50 (MALME-3M melanoma) > 100 µM | GI50 (MCF7 breast) > 100 µM | GI50 (MDA-MB-231 breast) > 100 µM | GI50 (MDA-MB-435) > 100 µM | GI50 (NCI-H226 lung) > 100 µM | GI50 (NCI-H23 lung) > 100 µM | GI50 (NCI-H460 lung) > 100 µM | GI50 (NCI-H522 lung) > 100 µM | GI50 (NCI/ADR-RES ovarian) > 100 µM | GI50 (OVCAR-3 ovarian) > 100 µM | GI50 (OVCAR-4 ovarian) > 100 µM | GI50 (OVCAR-5 ovarian) > 100 µM | GI50 (OVCAR-8 ovarian) > 100 µM | GI50 (PC-3 prostate) > 100 µM | GI50 (RPMI-8226 leukemia) > 100 µM | GI50 (RXF 393 renal) > 100 µM | GI50 (SF-268 CNS) > 100 µM | GI50 (SF-295 CNS) > 100 µM | GI50 (SF-539 CNS) > 100 µM | GI50 (SK-MEL-2 melanoma) > 100 µM | GI50 (SK-MEL-28 melanoma) > 100 µM | GI50 (SK-MEL-5 melanoma) > 100 µM | GI50 (SK-OV-3 ovarian) > 100 µM | GI50 (SN12C renal) > 100 µM | GI50 (SNB-19 CNS) > 100 µM | GI50 (SNB-75 CNS) > 100 µM | GI50 (SW-620 colon) > 100 µM | GI50 (T-47D breast) > 100 µM | GI50 (TK-10 renal) > 100 µM | GI50 (U251 CNS) > 100 µM | GI50 (UACC-257 melanoma) > 100 µM | GI50 (UACC-62 melanoma) > 100 µM | GI50 (UO-31 renal) > 100 µM
